Test system: rat taxol induced neuropathy model
Assay: Rat taxol neuropathy model (sensory nerve conduction velocity)
Type: in vivo, Sprague-Dawley female rats
Settings: once daily
Protocol: In vivo efficacy of representative compounds were tested with rat taxol induced neuropathy model reported by Cliffer et al. (Ann. Neurol 43:46-55, 1998).
Method Sprague-Dawley female rats (215-225g) were used. One week prior to the initiation of dosing with test compounds, base line electrophysiological recording were obtained. Dosing of the test compounds was initiated one day prior to the first injection of taxol (A.G. Scientific). Beginning on Day 2 animals were injected with total of two doses of 15 mg/kg paclitaxel giving 3 days apart, for a cumulative dose of […].
On Day 1 of the study, all rat were randomized into groups of 10 each and weighed. Dosing with test compounds was initiated on Day 1 and continued for a total of 45 days. Test compounds were administered by intraperitoneal (i.p.) injection or by post orum (p.o.) gavage in conscious once daily. Paclitaxel was administered on Day 2 and 5 by tail vein injection at 6 mg/ml in 50% saline/25%Cremophore/25% ethanol. One group was given the paclitaxel vehicle alone in an equivalent volume. Test compounds were formulated for dosing daily, immediately prior to dosing. The compounds were formulated by adding 15% of the final volume of pure PEG400 to the compounds and mixed on an orbital shaker for 40 minutes. Following dissolution, saline was added and the solution was vortexed. Taxol (A.G. Scientific) is solvated with Cremophore-ethanol vehicle at 12 mg/ml and then diluted 50/50 with saline. The test compounds are solvated with saline at appropriate concentration.
Sensory and motor nerve conduction velocities were evaluated using a method based in the protocol described by De Koning and Gispen (Peptides 8:415-422, 1987). Electrophysiological evaluation was carried out as a double blind study. Animals were anesthetized with isofluorane. In order to maintain body temperature, anesthetized animals were placed on Deltaphase ™ Isothermal Pads and rectal temperatures were monitored. Stimulating needle electrodes were inserted close to the sciatic nerve at the sciatic notch and the tibial nerve near the ankle. Subcutaneous recording electrodes were placed over the distal lumbricales foot muscles. Stimuli were supramaximal square-waves of 0.1 msec duration generated with a Grass S88 Stimulator through a Grass stimulation isolation unit. An ETH-260 Bride/Bio Amplifier (CB Sciences Inc), computer (Macintosh Iici), and data acquisition system (MacLab/200) were used for the recordings. The motor and sensory nerve conduction velocities were calculated by measuring the distance between the sciatic notch and ankle sites, and the latency between the M-wave and the H-reflex. The electrophysiological evaluations were conducted 2 weeks later. Statistical analysis was carried out using unpaired t-tests and repeated measures of analysis of variance (ANOVA) using Statview. In all cases 5% was chosen as the level of statistical significance in two-tailed tests.

[1] = p.o. administration, 20 mg/kg, FIG. 2, 3

Row | Structure (SMILES) | amelioration of taxol-induced retardation of sensory nerve conduction velocity [1] | other results
1 | COC(=O)CC(CSC[C@H](NC(C)=O)C(=O)OC)C(=O)c1cccnc1 (stereo partly drawn) [compound 60] | – | amelioration of taxol-induced retardation of sensory nerve conduction velocity (i.p. administration at 10 mg/kg, FIG. 1, 3): active
2 | CC(=O)NCCSCC(CC(=O)N(C)C)C(=O)c1cccnc1 (stereo not drawn) [compound 188] | – | amelioration of taxol-induced retardation of sensory nerve conduction velocity (p.o. administration, 40 mg/kg, FIG. 2, 3): active
3 | CC(=O)NCCSCC(CC(=O)N1CCCCC1)C(=O)c1cccnc1 (stereo not drawn) [compound 189] | active | amelioration of taxol-induced retardation of sensory nerve conduction velocity (i.p. administration at 2.5 mg/kg, FIG. 2): active
4 | CCN(CC)CCN(C)C(=O)C(CSCC(CC(=O)N(C)C)C(=O)c1cccnc1)NC(C)=O (stereo not drawn) [compound 438] | active | –
5 | CC(=O)N[C@@H](CSCC(CC(=O)N(C)C)C(=O)c1cccnc1)C(=O)N1CCN(C)CC1 (stereo partly drawn) [compound 440] | active | –

— patent publication US6399606B1, “Neuroprotective agents and methods related thereto” (Nippon Kayaku Co., Ltd., priority 1999, dated 2002)
